Source: patent publication US20250248402A1, “HERBICIDAL COMPOSITIONS AND METHODS FOR CONTROLLING WEEDS” (UPL Mauritius Limited, priority 2024, published 2025)

Test system: common waterhemp, Sensitive "WUS" Population
Assay: Greenhouse dose-response, effective dose on atrazine-sensitive waterhemp
Type: in vivo, Amaranthus tuberculatus
Settings: 13 days after treatment, visual scale 0-100

Structure (SMILES): CCNc1nc(Cl)nc(NC(C)C)n1 [Atrazine (480 g/L FL), Atrazine]
- ED 20 Estimate: 11.127 g ai/ha
- ED 80 Estimate: 39.353 g ai/ha
